# Assay results taken from patent US20220259215A1, “PYRROLOPYRAZOLE DERIVATIVES, PREPARATION METHOD THEREOF AND APPLICATION THEREOF IN MEDICINE” (SHANGHAI MEDICILON INC., priority 2019, published 2022).
# Target: T1, H+/K+ATPase (Oryctolagus cuniculus, UniProt P27112)
# T1 construct: The stomach tissue of the rabbit was separated; from tissue; host or cells: rabbit stomach (fundus mucosa), membrane fraction obtained by differential and Ficoll centrifugation
# Assay: Determination of compounds' inhibition of H+/K+ATPase enzyme activity (malachite green, OD 620 nm)
# Format: biochemical
# Conditions: H+/K+ATPase extracted from rabbit stomach mucosa; 500 μM ATP, pH 6.5, 37° C.
# Excerpt: Test Example: Determination of Compounds' Inhibition of H+/K+ATPase Enzyme Activity
# The following experiment is used to determine the inhibitory effect of the compound of the present invention on the H+/K+ATPase enzyme activity.
# 1. Experimental materials
# Plate reader: SpectraMax M5(MD).
# Malachite Green (Sigma Aldrich, 213020-25G).
# Ammonium molybdate (Sigma Aldrich, 277908-20G).
# ATP (Sigma Aldrich, A1852-1VL).
# Enzyme working solution: titrating the enzyme, diluting the enzyme with buffer solution 1, and taking 5 μl of the diluted solution into 50 μl reaction system.
# ATP solution: 100 mM ATP was diluted to 5 mM with no K+ buffer, and 5 μl of the diluted solution was added to the 50 μl reaction system, that is, the final concentration of ATP was 500 μM.
# MLG color development liquid: 0.12% MLG, 7.5% ammonium molybdate, 11% Tween-20 was mixed as 100:25:2, and adding 15 μl of the mixture into each well during detection.
# Buffer 1: 50 mM Tris-HCl pH 6.5, 5 mM magnesium chloride (magnesium chloride), 10 μM valinomycin (valinomycin).
# Buffer 2: 50 mM Tris-HCl pH 6.5, 5 mM magnesium chloride (magnesium chloride), 10 μM valinomycin (valinomycin), 20 mM KCl.
# Homogenization buffer: 10 mmol/L Tris-HCl, pH 6.8, 0.25M sucrose (sucrose), 1 mmol/LEDTA.
# 7.5% Ficoll layering solution: homogenization buffer+7.5% (W/W) (Ficoll 400).
# 3.1.H^+/K^+ATPase enzyme extraction
# (1) The stomach tissue of the rabbit was separated, and the blood was washed with tap water, food residue.
# (2) The fundus portion was thoroughly washed with pre-cooled NaCl solution to remove surface mucus.
# (3) The stripped mucosa was filled into a sample bag or a 50 ml centrifuge tube, and quickly freezing in a liquid nitrogen tank.
# (4) The tissue was removed, minced with surgical scissors, and a pre-cooled homogenization buffer (4 ml/g tissue) was added and homogenized in a tissue homogenizer for 2 to 10 minutes.
# (5) After homogenization, if there were larger tissue particles, they could be removed by centrifugation (600 g, 10 min), and then the supernatant was transfered to a clean centrifuge tube. After centrifugation at 20000 g for 30 minutes, then the supernatant was transferred to a clean centrifuge tube at 100000 g for 90 minutes, and the precipitate was collected.
# (6) Resuspending the precipitate with homogenization buffer, blowing uniformly, adding 7.5% Ficoll layering solution at equal ratio, centrifuging at 100000 g for 90 minutes, and collecting the precipitate.
# (7) Resuspending the precipitate with homogenization buffer, blowing uniformly, and the protein concentration was measured by Bradford. Freezing in tubes at −80° C. for later use.
# 3.2. H+/K+ATPase activity experiment
# (1) Adding 35 μl of reaction buffer to each experimental well, and then adding 35 μl of buffer 1.
# (2) Adding 5 μl buffer 1 containing 10% DMSO to the whole enzyme and buffer well.
# (3) Adding 5 μl of 10× compound working solution to the compound well and mixing well.
# (4) Adding 5 μl of buffer 1 to the buffer well.
# (5) Adding 5 μl of 10× enzyme working solution to the remaining wells, mixing and incubating at 37° C. for 30 minutes.
# (6) Adding 5 μl of 10× ATP working solution to all experimental wells, mixing and incubating at 37° C. for 20 min.
# (7) Adding 15 μl MLG chromogenic solution to all experimental wells, and uniformly mixing and incubating at room temperature for 5-30 min.
# (8) The reading number of 620 nm was detected by an M5 instrument.
# The inhibition rate is calculated with the following formula:
# Inhibition rate (IC50)=[OD (sample well)-OD (full enzyme well containing potassium chloride)]/[(OD (full enzyme well containing potassium chloride)−(OD (full enzyme well without potassium chloride)]×100%
# T1 sequence (P27112 whole entry): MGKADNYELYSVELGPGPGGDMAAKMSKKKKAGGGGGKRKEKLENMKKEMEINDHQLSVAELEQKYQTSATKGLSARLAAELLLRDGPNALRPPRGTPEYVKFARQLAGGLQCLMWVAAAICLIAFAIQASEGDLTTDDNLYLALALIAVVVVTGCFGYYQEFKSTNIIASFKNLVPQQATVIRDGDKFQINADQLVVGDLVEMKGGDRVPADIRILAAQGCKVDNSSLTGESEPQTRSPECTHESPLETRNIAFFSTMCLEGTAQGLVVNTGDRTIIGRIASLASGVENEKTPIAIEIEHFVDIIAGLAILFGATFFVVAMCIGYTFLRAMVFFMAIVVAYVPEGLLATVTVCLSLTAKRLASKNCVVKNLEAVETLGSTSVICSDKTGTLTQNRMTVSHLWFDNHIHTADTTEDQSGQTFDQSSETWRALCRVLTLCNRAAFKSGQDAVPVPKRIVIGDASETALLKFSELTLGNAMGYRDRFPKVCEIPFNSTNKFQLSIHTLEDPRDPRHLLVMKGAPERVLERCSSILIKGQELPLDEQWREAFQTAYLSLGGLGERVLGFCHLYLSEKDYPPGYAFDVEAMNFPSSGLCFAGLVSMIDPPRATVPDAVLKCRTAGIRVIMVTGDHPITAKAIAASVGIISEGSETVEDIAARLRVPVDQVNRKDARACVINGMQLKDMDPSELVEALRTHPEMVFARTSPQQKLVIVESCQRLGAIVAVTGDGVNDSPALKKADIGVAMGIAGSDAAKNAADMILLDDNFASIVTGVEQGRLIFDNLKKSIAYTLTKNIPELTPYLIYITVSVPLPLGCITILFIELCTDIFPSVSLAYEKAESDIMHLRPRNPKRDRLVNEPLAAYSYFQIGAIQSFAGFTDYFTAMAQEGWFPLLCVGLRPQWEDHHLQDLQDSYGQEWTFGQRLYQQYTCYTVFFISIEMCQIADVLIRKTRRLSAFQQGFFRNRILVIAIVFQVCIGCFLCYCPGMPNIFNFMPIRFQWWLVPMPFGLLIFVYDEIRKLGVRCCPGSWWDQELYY
# T1 sequence (P18597 whole entry partner): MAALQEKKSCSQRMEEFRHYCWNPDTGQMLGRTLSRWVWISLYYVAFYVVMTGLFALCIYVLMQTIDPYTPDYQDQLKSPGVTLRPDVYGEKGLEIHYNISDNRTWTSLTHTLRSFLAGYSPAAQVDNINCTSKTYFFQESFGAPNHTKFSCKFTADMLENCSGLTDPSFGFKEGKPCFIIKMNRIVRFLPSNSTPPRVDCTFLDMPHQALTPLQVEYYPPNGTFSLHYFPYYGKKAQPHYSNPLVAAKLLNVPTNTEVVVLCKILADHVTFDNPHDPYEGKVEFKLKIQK
row,Compound,IC50 [nM]
1,"CN1Cc2nn(Cc3cccc(Nc4ccnc(Cl)n4)c3)c(-c3ccccc3F)c2C1 [Example 3, 2-chloro-N-(3-((3-(2-fluorophenyl)-5-methyl-5,6-dihydropyrrolo[3,4-c]pyrazol-2(4H)-yl)methyl)phenyl) pyrimidin-4-amine]",966
2,"COc1ccc(Nc2cccc(Cn3nc4c(c3-c3ccccc3F)CN(C)C4)c2)c(Cl)n1 [Example 1, 2-chloro-N-(3-((3-(2-fluorophenyl)-5-methyl-5,6-dihydropyrrolo[3,4-c]pyrazol-2(4H)-yl)methyl)phenyl)-6-methoxypyridin-3-amine]",415
3,"Cc1ccc(Nc2cccc(Cn3nc4c(c3-c3ccccc3F)CN(C)C4)c2)c(Cl)n1 [Example 2, 2-chloro-N-(3-((3-(2-fluorophenyl)-5-methyl-5,6-dihydropyrrolo[3,4-c]pyrazol-2(4H)-yl)methyl)phenyl)-6-methylpyridin-3-amine]",669
4,"CNc1nccc(Nc2cccc(Cn3nc4c(c3-c3ccccc3F)CN(C)C4)c2)n1 [Example 5, N4-(3-((3-(2-fluorophenyl)-5-methyl-5,6-dihydropyrrolo[3,4-c]pyrazol-2(4H)-yl)methyl)phenyl)-N2-methylpyrimidine-2,4-diamine]",279
5,"CN1Cc2nn(Cc3cccc(Nc4cc[nH]c(=O)n4)c3)c(-c3ccccc3F)c2C1 [Example 4, 4-((3-((3-(2-fluorophenyl)-5-methyl-5,6-dihydropyrrolo[3,4-c]pyrazol-2(4H)-yl)methyl)phenyl)amino)pyrimidin-2-(1H)-one]",729

# Next, values leading:
row,IC50 [nM],Compound
1,325,"CN1Cc2nn(Cc3cccc(Nc4cncc(Cl)n4)c3)c(-c3ccccc3F)c2C1 [Example 7, 6-chloro-N-(3-((3-(2-fluorophenyl)-5-methyl-5,6-dihydropyrrolo[3,4-c]pyrazol-2(4H)-yl)methyl)phenyl)pyrazin-2-amine]"
2,2850,"CN1Cc2nn(Cc3cccc(Nc4ccnc(N5CCOCC5)n4)c3)c(-c3ccccc3F)c2C1 [Example 6, N-(3-((3-(2-fluorophenyl)-5-methyl-5,6-dihydropyrrolo[3,4-c]pyrazol-2(4H)-yl)methyl)phenyl)-2-morpholinopyrimidin-4-amine]"
